Source: patent US20240130675A1, “Methods for Treating Autism Spectrum Disorder” (The General Hospital Corporation, priority 2021, published 2024)

Tested on: PgACC glutamate activity
Assay: PgACC glutamate activity by 2D-JPRESS 1H MRS at 4T, pre- and post-treatment
Assay type: in vivo, human
Method: Glutamate response to memantine therapy in the PgACC was assessed by acquiring spectroscopic MRI pre- and post-treatment.
Healthy Control Participants were enrolled for spectroscopic neuro-imaging data acquisition to form a control group. Healthy controls (HC) were age, sex, and IQ-matched with enrolled ASD participants. HC participants were with no significant autistic traits, as screened by SRS-2 raw score of<60, and with no major psychopathology, as established by the K-SADS-E and confirmed by clinical diagnostic interview.
Data Acquisition—Proton spectra were acquired at 4T using a two-dimensional J-resolved (2D-JPRESS) ^1HMRS protocol. A 2D-JPRESS sequence was chosen to improve reliability for spectral fitting of the metabolites(Gonenc et al., 2010; Moore et al., 2007), allow analysis of glutamate alone versus ratios or combined measures (e.g., Glx), and confirm that measured metabolic differences truly arise from differences in metabolic levels and not from T2 relaxation time differences. […] Data were collected in 12 TE-stepped spectra with the echo-time ranging from 30 to 250 ms in 20 ms increments, with TR=2s, averages=16, scan duration=7 minutes.
Data Processing: Spectral analysis was conducted in a fully automated fashion using the commercially available LCModel package (version 6.2-1F). After the 2D-JPRESS dataset was resolved into a series of one-dimensional spectra where each spectrum was modeled and fitted with GAMMA simulated96 J-resolved basis sets, glutamate activity levels were derived from the total integral across the J-series. Glutamate transverse relaxation time (T2) was obtained from the raw peak vs. TE decay curve fitted with Levenberg-Marquardt algorithm using an exponential decay function (for glutamate T2) convoluted with a polynomial function (for glutamate J-coupling) which was obtained from the GAMMA simulation run with previously measured spectral parameters (Govindaraju, Young, & Maudsley, 2000). Data quality was assessed by LCModel calculated Full Width Half Maximum (FWHM), Signal to Noise Ratio (SNR) and Cramer-Rao Lower Bounds (CRLB).
The primary outcome was analyzed using Pearson's chi-square test at the a priori defined significance level of 0.05. Secondary measures of efficacy were analyzed using mixed-effects regression models with robust standard errors to account for the repeated measures on each subject. The primary and secondary measures were compared between memantine versus placebo as well as between those with high versus normal baseline glutamate activity levels. Participants were categorized as having high versus normal glutamate activity levels at baseline using z-scores. The population mean and SD for z-score calculations were derived from healthy control glutamate activity levels (baseline and endpoint). Glutamate activity levels with z-scores≥1 were categorized as high glutamate activity levels, those with z-scores<1 and >−1 were categorized as normal glutamate activity levels and those with z-scores≤−1 were categorized as low glutamate activity levels. Changes in PgACC glutamate activity levels within groups were tested using paired t-tests and changes between groups were tested using two-sample t-tests. We also performed ROC curve analyses to determine the predictive utility of baseline PgACC glutamate activity levels in identifying treatment responders within the memantine and placebo groups. All analyses apart from the analysis of the primary outcome were considered exploratory. Analyses were performed using a modified intent-to-treat analysis set which included all randomized patients who were regarded exposed to study medication (completed at least two weeks of treatment) and had at least one follow-up assessment.

CC12CC3CC(C)(C1)CC(N)(C3)C2 [MEM, memantine]
PgACC Glutamate Activity BL (High-Glu ASD Sample, MEM Group N = 10, baseline): 109.1 ± 11.9
PgACC Glutamate Activity EP (High-Glu ASD Sample, MEM Group N = 10, endpoint): 78.7 ± 13.6
PgACC Glutamate Activity MD (High-Glu ASD Sample, MEM Group N = 10, mean difference BL to EP): −30.3 ± 23.3
PgACC Glutamate Activity ASD vs. HC MD @ EP (High-Glu ASD Sample, MEM Group N=10 vs HC N = 13): −2.5 ± 34.3
PgACC Glutamate Activity ASD vs. HC MD @ BL (High-Glu ASD Sample, MEM Group N=10 vs HC N = 16): −32.5 ± 32.4
PgACC Glutamate Activity BL (High-Glu ASD Sample, MEM Responders N = 8, baseline): 111.1 ± 12.5
PgACC Glutamate Activity EP (High-Glu ASD Sample, MEM Responders N = 8, endpoint): 75.8 ± 13.6
PgACC Glutamate Activity MD (High-Glu ASD Sample, MEM Responders N = 8, mean difference BL to EP): −35.4 ± 23.5
PgACC Glutamate Activity ASD vs. HC MD @ EP (High-Glu ASD Sample, MEM Responders N=8 vs HC N = 13): 0.5 ± 35.7
PgACC Glutamate Activity ASD vs. HC MD @ BL (High-Glu ASD Sample, MEM Responders N=8 vs HC N = 16): −34.5 ± 34.4
MD in Glu w/ Tx: MD MEM vs PBO (High-Glu ASD, MEM = 10 PBO = 8): −21.5 ± 37.3
MD in Glu w/ Tx: MD H-Glu vs N-Glu (MEM Group, H-Glu N = 10 vs N-Glu N = 5): 32.2 ± 43.1
PgACC Glutamate Activity BL (Normal-Glu ASD Sample, MEM Group/Non-Responders N = 5, baseline): 84.1 ± 8.6
PgACC Glutamate Activity EP (Normal-Glu ASD Sample, MEM Group/Non-Responders N = 5, endpoint): 86.0 ± 2.8
PgACC Glutamate Activity MD (Normal-Glu ASD Sample, MEM Group/Non-Responders N = 5, mean difference BL to EP): 1.9 ± 10.8
PgACC Glutamate Activity ASD vs. HC MD @ EP (Normal-Glu ASD Sample, MEM Group/Non-Responders N=5 vs HC N = 13): −9.7 ± 37.2
MD in Glu w/ Tx: MD MEM vs PBO (Normal-Glu ASD, MEM = 5): −6.3 ± 24.1
PgACC Glutamate Activity ASD vs. HC MD @ BL (Unselected ASD Sample, MEM Group (MEM=19) vs HC N = 16): −19.8 ± 34.5^[MEM=19]
PgACC Glutamate Activity BL (Unselected ASD Sample, MEM Group N = 15, baseline, mean ± SD): 100.8 ± 16.1
PgACC Glutamate Activity EP (Unselected ASD Sample, MEM Group N = 15, endpoint, mean ± SD): 81.2 ± 11.6
PgACC Glutamate Activity MD (Unselected ASD Sample, MEM Group N = 15, mean difference BL to EP): −19.6 ± 25.1
PgACC Glutamate Activity ASD vs. HC MD @ EP (Unselected ASD Sample, MEM Group N=15 vs HC N = 13): −4.9 ± 31.2
PgACC Glutamate Activity BL (Unselected ASD Sample, MEM Non-responders N = 7, baseline): 88.9 ± 10.9
PgACC Glutamate Activity EP (Unselected ASD Sample, MEM Non-responders N = 7, endpoint): 87.3 ± 3.9
PgACC Glutamate Activity MD (Unselected ASD Sample, MEM Non-responders N = 7, mean difference BL to EP): −1.6 ± 10.7
PgACC Glutamate Activity ASD vs. HC MD @ EP (Unselected ASD Sample, MEM Non-responders N=7 vs HC N = 13): −11.1 ± 33.1
PgACC Glutamate Activity ASD vs. HC MD @ BL (Unselected ASD Sample, MEM Non-responders N=7 vs HC N = 16): −12.3 ± 34.9
PgACC Glutamate Activity BL (Unselected ASD Sample, MEM Responders N = 8, baseline): 111.1 ± 12.5
PgACC Glutamate Activity EP (Unselected ASD Sample, MEM Responders N = 8, endpoint): 75.8 ± 13.6
PgACC Glutamate Activity MD (Unselected ASD Sample, MEM Responders N = 8, mean difference BL to EP): −35.4 ± 23.5
PgACC Glutamate Activity ASD vs. HC MD @ EP (Unselected ASD Sample, MEM Responders N=8 vs HC N = 13): 0.48 ± 35.7
PgACC Glutamate Activity ASD vs. HC MD @ BL (Unselected ASD Sample, MEM Responders N=8 vs HC N = 16): -34.5 ± 34.4
MD in Glu w/ Tx: MD MEM vs PBO (Unselected ASD, MEM = 15, PBO = 16): −12.2 ± 38.3
Magnitude of PgACC glutamate reduction, memantine versus placebo (high glutamate sample): significantly higher
PgACC glutamate activity with treatment versus HCs (high glutamate sample, memantine group): not significantly different from HCs
Change with treatment in PgACC glutamate activity, baseline to endpoint (high glutamate sample, memantine treated group): significant reduction
Change with treatment in PgACC glutamate activity, baseline to endpoint (normal-glutamate sample): did not change significantly
Change with treatment in PgACC glutamate activity, baseline to endpoint (unselected sample of ASD, memantine treated group): significant reduction
